From patent US20230157290A1, “ALKENE-CONTAINING CARBOXYLATE COMPOUND AND USE THEREOF” (SHENYANG SINOCHEM AGROCHEMICALS R&D CO., LTD, priority 2019, published 2023)

Key:
Format in all cases: in vivo
Details in all cases: after emergence
piemarker = assay: Herbicidal activity, post-emergence stem and leaf spray, greenhouse: piemarker control
Experimental: (§1) Seeds of broadleaf weeds (zinnia and piemarker) or grassy weeds (green bristlegrass and barnyard grass) were respectively sown in a paper cup having a diameter of 7 cm and containing nutrient soil; after sowing, the seeds were covered with 1 cm of soil, the soil was pressed and watered, and then the seeds were cultivated in a greenhouse according to a conventional method; and stems and leaves were sprayed after 2-3 leaf stage of the weeds.
(§2) After the original medicinal acetone was dissolved, the test requires to use 1‰ of Tween 80 to stand in running water to prepare the solution to be tested with a required concentration. According to the design dose of the test, spray treatment was carried out on a track-type crop sprayer (designed and produced by British Engineer Research Ltd.) (spray pressure is 1.95 kg/cm^2, spray volume is 500 L/hm^2 and track speed is 1.48 km/h). The test was repeated for three times. The test material was treated and then placed in an operation hall. The medicinal liquid was naturally dried in the shade, and then was placed in a greenhouse and managed according to the conventional method. The response of the weeds to the drug was observed and recorded. After treatment, the control effects of the test drug on the weeds were visually inspected regularly, expressed by 0-100%. “0” represents no control effect and “100%4” represents complete killing.
According to the above test method, part of the compounds of the formula and KC1 are selected for activity test of controlling the piemarker.

zinnia = assay: Herbicidal activity, post-emergence stem and leaf spray, greenhouse: zinnia control
Experimental: as §1, §2
According to the above test method, part of the compounds of the formula I and KC1 are selected for activity test of controlling the zinnia.

barnyard grass = assay: Herbicidal activity, post-emergence stem and leaf spray, greenhouse: barnyard grass control
Experimental: as §1, §2
According to the above test method, part of the compounds of the formula I and KC1 or KC2 are selected for activity test of controlling the barnyard grass.

green bristlegrass = assay: Herbicidal activity, post-emergence stem and leaf spray, greenhouse: green bristlegrass control
Experimental: as §1, §2
According to the above test method, part of the compounds of the formula I and KC1 or KC2 are selected for activity test of controlling the green bristlegrass.

[1] = dose 600 g a.i./hm^2, visual, 0 = no control effect, 100% = complete killing

SMILES	Piemarker control activity (control effect %) (piemarker; dose 37.5 g a.i./hm^2) [%]	Piemarker control activity (control effect %) (piemarker; dose 150 g a.i./hm^2) [%]	Piemarker control activity (control effect %) (piemarker; dose 600 g a.i./hm^2) [%]	Zinnia control activity (control effect %) (zinnia; dose 37.5 g a.i./hm^2) [%]	Zinnia control activity (control effect %) (zinnia; dose 150 g a.i./hm^2) [%]	Zinnia control activity (control effect %) (zinnia; [1]) [%]	Barnyard grass control activity (control effect %) (barnyard grass; dose 37.5 g a.i./hm^2) [%]	Barnyard grass control activity (control effect %) (barnyard grass; dose 150 g a.i./hm^2) [%]	Barnyard grass control activity (control effect %) (barnyard grass; dose 600 g a.i./hm^2) [%]	Green bristlegrass control activity (control effect %) (green bristlegrass; dose 37.5 g a.i./hm^2) [%]	Green bristlegrass control activity (control effect %) (green bristlegrass; dose 150 g a.i./hm^2) [%]	Green bristlegrass control activity (control effect %) (green bristlegrass; dose 600 g a.i./hm^2) [%]
Cc1nn(C)c(OC(=O)/C=C/c2ccccc2)c1C(=O)c1ccc(C(F)(F)F)cc1S(C)(=O)=O [Compound 1-1]	90	95	100	–	–	–	–	–	–	–	–	–
Cc1c(S(C)(=O)=O)ccc(C(=O)c2cnn(C)c2OC(=O)/C=C/c2ccc3c(c2)OCO3)c1Cl [Compound 1-42]	90	95	100	100	100	100	80	95	100	–	–	–
COCCOCc1c(S(C)(=O)=O)ccc(C(=O)c2c(C)nn(C)c2OC(=O)/C=C/c2ccc(-c3ccccc3)cc2)c1Cl [Compound 1-81]	–	–	–	90	95	100	80	90	95	–	–	–
COCCOCc1c(S(C)(=O)=O)ccc(C(=O)c2c(C)nn(C)c2OC(=O)/C=C/c2ccc3c(c2)OCO3)c1Cl [Compound 1-82]	–	–	–	–	–	–	90	95	100	–	–	–
COCCOc1c(S(C)(=O)=O)ccc(C(=O)c2c(C)nn(C)c2OC(=O)/C=C/c2ccccc2)c1C [Compound 1-259]	100	100	–	–	–	–	100	100	–	100	100	–
CCOc1c(S(C)(=O)=O)ccc(C(=O)c2c(C)nn(C)c2OC(=O)/C=C/c2ccccc2)c1C [Compound 1-280]	–	–	–	–	–	–	85	95	100	80	90	100
Cc1c(C(=O)c2cnn(C)c2OC(=O)/C=C/c2ccccc2)ccc(S(C)(=O)=O)c1C1=NOCC1 [Compound 1-292]	90	90	95	–	–	–	90	95	100	90	90	95
Cc1nn(C)c(OC(=O)C2=CCCCC2)c1C(=O)c1ccc(S(C)(=O)=O)c(OCC(F)(F)F)c1C [Compound 2-37]	–	–	–	–	–	–	95	100	100	–	–	–
COCCOc1c(S(C)(=O)=O)ccc(C(=O)c2cnn(C)c2OC(=O)C2=CCCCC2)c1C [Compound 2-67]	–	–	–	–	–	–	90	100	100	–	–	–
Cc1nn(C)c(OC(=O)C2=CCCCC2)c1C(=O)c1ccc(S(C)(=O)=O)c(OCC2CCCO2)c1C (stereo not shown) [Compound 2-73]	–	–	–	–	–	–	95	100	100	–	–	–
Cc1c(C(=O)c2cnn(C)c2OC(=O)C2=CCCCC2)ccc(S(C)(=O)=O)c1C1=NOCC1 [Compound 2-121]	–	–	–	–	–	–	–	–	–	80	90	98
Cc1c(C(=O)c2cnn(C)c2OC(=O)C2=CCCC2)ccc(S(C)(=O)=O)c1C1=NOCC1 [Compound 2-123]	–	–	–	–	–	–	100	100	100	90	100	100
Cc1nn(C)c(OC(=O)/C=C/c2ccccc2)c1C(=O)c1ccc([N+](=O)[O-])cc1Cl [KC1, reference compound]	20	70	100	0	0	0	0	0	0	10	10	10
Cn1nc(C2CC2)c(C(=O)c2ccc(C(F)(F)F)cc2S(C)(=O)=O)c1OC(=O)C1=CCCCC1 [KC2, reference compound]	–	–	–	–	–	–	60	90	–	30	60	–
